Experimental data published in patent US20040091960A1, “Novel physiologically active peptides and use thereof” (priority 2000, published 2004).

System: LH secretion
Assay: LH secretion promoting action (LH blood level)
Type: in vivo
Conditions: statement only, no experiment described

With “polypeptide of the present invention: mouse matured GALR2 ligand, amino acid sequence SEQ ID NO: 1, ligand peptide for galanin receptor (APAHRGRGGWTLNSAGYLLGPVLPVSSKADQGRKRDSALEILDLWKIIDGLPYSHSPRMT; Mouse)” the “LH secretion promoting action (LH blood level increasing action)” value was “specific LH blood level increasing action”.
